Source: patent publication US20090176711A1, “INHIBITORS OF AMYLOID PRECURSOR PROTEIN PROCESSING” (priority 2008, published 2009)

Key:
[1] = system: Substrate M (Sub M, SEVNLDAEFR; β-secretase cleavage site of APPsw); test: Binding of biotin-labeled Substrate M to immobilized complementary (HC) peptides; settings: substrate not specified
Method: Complementary peptides (0.2, 2, 20, and 200 μM) were dissolved in phosphate buffered saline (PBS) (pH 7.4) and fixed to microtiter wells for 5 hr at 37° C. The wells were blocked with blocking buffer (3% BSA/PBS) for 1 hr at 37° C. Either N-terminally biotinylated Substrate W or M (20 μM) in blocking buffer was added and incubated for overnight at 4° C. Streptavidin-horseradish peroxidase in blocking buffer was added to detect resulting bound substrates. The plate was incubated for 2 hr at room temperature (RT), followed by addition of 3,3′,5,5′-tetramethyl-benzidine (TMB) as substrate for horseradish peroxidase for color reaction.
(§1) Reacti-Bind™ maleic anhydride-activated polystyrene plate (Pierce, IL, USA) was coated with 50 μl of HC peptide (200 μM in distilled water) by chemical coupling for 3 h at room temperature (RT) and washed three times with phosphate buffered saline (PBS) containing 0.05% tween 20 (PBST). The plate was blocked with blocking buffer (0.5% gelatin in PBS) for 1 h at RT. After discarding blocking buffer, biotinylated BACE1 substrates (200 μM) in blocking buffer was applied on the plate and incubated for 2.5 h at RT. Each well was washed three times with PBST. The bound biotinylated BACE1 substrates were detected by incubation with streptavidin-horseradish peroxidase (Str-HRP, 125 mU/ml in blocking buffer) for 2 h at RT. Color reaction was carried out with 50 μl of 3,3′,5,5′-Tetramethylbenzidine Liquid Substrate (Sigma-Aldrich, MO, USA). After stopping the reaction by addition of an equal volume of 1 N HCl, absorbance at 450 nm was read in an automated ELISA reader (EL 312e, Bio-Tek Instruments, VT, USA). All assays were carried out in duplicate.

[2] = biological target: T1, cleavage of Sub-ST6Ga11 by rhBACE1 (Rattus norvegicus, UniProt P13721); test: HPLC analysis of the cleavage of Sub-ST6Ga11 by rhBACE1; type: biochemical, human; settings: up to 10 inhibitor/substrate ratio, Sub-ST6Ga11 50 μM, 500 nM enzyme
T1 construct: 19 amino acid region (DYEALTL/QAKEFQMPKSQE) that contains the β-cleavage site for investigation was chosen; purchased A&Pep Co., Inc. (non-labelled peptides); R&D Systems (rhBACE1)
Description: One of the advantages of the APP inhibitor described in the present invention is that it is a peptide or a mimetic that bind to the β-secretase cleavage site of APP, thus not affecting other β-secretase substrates. To confirm the specificity of the inventive APP inhibitor, two different types of substrates were used, APP Sub M and ST6Ga11. Both substrates are cleaved by β-secretase under normal conditions and the effect of the inventive APP inhibitor on the substrate cleavage was monitored by HPLC (See the schematic diagram in FIG. 16.) To carry out these experiments, the concentration of β-secretase required for cleavage of both substrates was determined as shown in FIG. 17. For substantial cleavage of ST6Ga11 substrate, 420 nM of the enzyme was required. Therefore, 420 nM of β-secretase was used for the following experiment.
Various concentrations of HC peptide were preincubated with either Sub M (50 μM) or Sub-ST6Ga11 (50 μM, DYEALTLQAKEFQMPKSQE) peptide corresponding to the β-cleavage site of ST6Ga11 for 2 h at RT. The mixtures containing Sub M was treated with 50 nM of rhBACE1 and that containing Sub-ST6Ga11 was treated with 500 nM enzyme for 12 h at RT. Roughly 50% of each BACE1 substrate was cleaved in the absence of HC peptide. The cleavage products were separated on a C18 reversed-phase HPLC column as described above.

[3] = system: cleavage of Substrate M by β-secretase; test: Inhibition of cleavage of Substrate M by β-secretase by complementary and deletion peptides (Examples 1, 5, 6; assay format not stated); type: biochemical; settings: various concentrations, Substrate M (FIG. 8)
Method: So far we have focused on c-Sub M peptide. Serial deletions were made from N-terminus or C-terminus of c-Sub M (FIG. 5), and we investigated effect of the deletions on the cleavage of Substrate M. The optimum peptide/substrate ratio for inhibition on the cleavage of substrate was determined by observing the inhibition percentage at various peptide/substrate ratios (FIG. 4). Subsequently, the inhibitory activity of the deletion peptides were tested at 10 inhibitor/substrate ratio and the concentration of the Substrate M was 50 μM. Deletion of the first two amino acids from the N-terminus had little effect on the activity and deletion of five amino acids from the C-terminus of c-Sub M had little effect on the inhibitory activity (FIG. 6). Further deleted peptides were tested for inhibitory activity on the cleavage of Substrate M (FIG. 7).
The above-mentioned peptides that have inhibitory activity were tested at various concentrations for their inhibitory activities on their mutant substrate Substrate M (FIG. 8).

[4] = system: APP processing in HEK293-APP cells; test: APP inhibitor activity on HEK293-APP cells (βCTF Western blot); type: cell-based, human; settings: γ-secretase inhibitor and cholesterol added
Method: In the neuronal cells of the brain, APP is processed by α-secretase or β-secretase. To investigate the effects of the inhibitors on the cell, a cell based assay system was developed as described in FIG. 10. C-terminal fragment of APP remaining on the cell membrane was detected by Western blot. The resulting C-terminal fragments, αCTF or βCTF are further processed by γ-secretase. However, if the cells are treated with the γ-secretase inhibitor, this processing is blocked. As a result, αCTF or βCTF accumulate in the cell. If β-secretase inhibitor or APP inhibitor is added, this processing is blocked and βCTF disappears.
In addition, γ-secretase inhibitor and cholesterol were added to the cells to increase βCTF level. Commercially available peptide-based β-secretase inhibitor was included as control (Lane 6, FIG. 11). To detect the N-terminal fragment of β-amyloid which is a product of APP processing, 6E10 antibody was employed. […] Recently, it has been reported that the commercially available peptide-based inhibitor had to be linked to an oligoarginine transporter peptide to have inhibitory activity against cells. Therefore, mimetic approach is adopted to produce cell permeable analogs. (Chang et al. J. Neurochemistry 2004; 89:1409-1416).
After confirming the ability of the oligo-arginine coupled APP inhibitors to enter the cells, the inhibitors were applied to HEK293-APP cells overexpressing APP to test their inhibitory activities on APP processing. […] This inhibitor started to show significant inhibitory activity beginning from 0.1 μM (lower panel).

[5] = biological target: T2, Sub-ST6Ga11 (DYEALTLQAKEFQMPKSQE) (Rattus norvegicus, UniProt P13721); test: Binding of bio-Sub-ST6Ga11 to immobilized HC peptide; settings: HC peptide chemically coupled on microtiter plate
T2 construct: 19 amino acid region (DYEALTL/QAKEFQMPKSQE) that contains the β-cleavage site for investigation was chosen; purchased Peptron, Inc; host or cells: chemical synthesis
Method: as §1
It was investigated if HC peptide would show specificity for APP in terms of the inhibition of cleavage by BACE1. ST6Ga11 is also cleaved by BACE1. For this experiment, 19 amino acid region (DYEALTL/QAKEFQMPKSQE) that contains the β-cleavage site for investigation was chosen. The 19 amino acid peptide was designated as Sub-ST6Ga11. […]

EFCIQIHF [c-Sub M ΔN1C1]
absorbance in binding test [1]: high absorbance | inhibition of cleavage of Sub-ST6Ga11 by rhBACE1 [2]: about 10% | concentration dependent inhibitory activity, activity group [3]: most active group | inhibitory activity on APP processing (βCTF) [4]: none of the inhibitors tested showed inhibitory activity | binding of bio-Sub-ST6Ga11 [5]: also bound
